Experiments:
Format in all cases: in vivo
[1] = tested on: Dandelion seeds; assay: Preventative activity (anti-germination), seeds on agar in Petri dish; conditions: 0.35 g sprayed (benzyl alcohol pure, 700 L/Ha; glyphosate diluted at 0.5%)
[2] = tested on: Mustard; assay: Early post-emergence herbicide activity, visual rating of symptoms; conditions: cotyledon stage, average of 5 pots
Source text: The soil is composed of 50% agricultural soil and 50% vermiculite.
Mustard seeds are sown in a Petri dish up to the stage of emergence of the radicle. The pre-germinated seeds are placed 1 cm deep in 8 cm×8 cm pots at a rate of 5 seeds per pot and 5 pots/repetitions per condition (treated plants and control plants).
On appearance of the cotyledons, the treatment is applied using a spraying bench simulating an outdoor treatment.
The spraying volume of 200 L/ha.
An untreated control (water alone) is added.
The cultivation conditions are 15° C. during the night/20° C. during the day with a photoperiod of 14 hours (light intensity of approximately 300 μmol/s/m^2).
A visual rating of the symptoms at 1, 3 and 7 days after treatment is carried out for the treated plants.
Each value is an average value calculated over 5 pots per condition.

[3] = tested on: Brambles; assay: Non-selective activity on brambles (spraying, potted); conditions: 12 g pure benzyl alcohol (600 L/Ha) in 16 g product (800 L/Ha)
Protocol: (§1) The assays were carried out on potted plants.
The application of the product is carried out with a trigger spray bottle which makes it possible to spray 1 g of product per spraying, as microdroplets. The treated plants are sprinkled with different quantities of water comprising different quantities of pure benzyl alcohol (PanReac AppliChem—ITW Reagents). The untreated (control) plants are sprinkled with the same total quantity of water only.
The brambles are sprinkled with: • 16 g of product (equivalent to 800 L/Ha) including 12 g pure benzyl alcohol for the treated plant (equivalent to 600 L/Ha pure benzyl alcohol), and • 16 g water for the control plants.
The collapsing of the plant, the colour intensity and the diameter of the plant were measured as indicated in Example 1.

[4] = tested on: Barley seeds; assay: Preventative activity (anti-germination), seeds on agar in Petri dish; conditions: 0.35 g sprayed (benzyl alcohol pure, 700 L/Ha; glyphosate diluted at 0.5%)
Protocol: (§2) The assays were carried out on seeds sown on a Petri dish with respectively a control mode, an assay with benzyl alcohol and an assay with glyphosate herbicide (Gallup® super 360, Barclay).
(§3) The application of the product is carried out with a trigger spray bottle which makes it possible to spray 0.35 g of product per spraying, as microdroplets.
(§4) Seeds are placed on an agar gel in Petri dishes. 16 barley seeds, 24 rapeseed seeds, 18 wheat seeds, 10 maize seeds, 10 soybean seeds are positioned for each test.
(§5) The seeds are sprinkled either with 0.35 g water (equivalent 700 L/Ha) including 0.35 g pure benzyl alcohol (PanReac AppliChem—ITW Reagents) (equivalent 700 L/Ha pure benzyl alcohol), or with 0.35 g water for the control, or with 0.35 g glyphosate diluted at 0.5% for the glyphosate test.
(§6) The plants are observed at 0 and 11 days. The percentage of germination is the percentage of germinated seeds evaluated after 11 days.

[5] = tested on: Maize seeds; assay: as above; conditions: 0.35 g sprayed (benzyl alcohol pure, 700 L/Ha; glyphosate diluted at 0.5%)
Protocol: as §2, §3, §4, §5, §6

[6] = tested on: Soybean seeds; assay: as above; conditions: 0.35 g sprayed (benzyl alcohol pure, 700 L/Ha; glyphosate diluted at 0.5%)
Protocol: as §2, §3, §4, §5, §6

[7] = tested on: Rapeseed seeds; assay: as above; conditions: 0.35 g sprayed (benzyl alcohol pure, 700 L/Ha; glyphosate diluted at 0.5%)
Protocol: as §2, §3, §4, §5, §6

[8] = tested on: Wheat seeds; assay: as above; conditions: 0.35 g sprayed (benzyl alcohol pure, 700 L/Ha; glyphosate diluted at 0.5%)
Protocol: as §2, §3, §4, §5, §6

[9] = tested on: Petunia; assay: Inter-row cultivation herbicide activity: effect on untreated adjacent plant; parameters: key: yes: the dose and the mode of use when use in intercrop cultivation is prescribed; indicates that it is not
Protocol: (§7) Pure benzyl alcohol was used (PanReac AppliChem—ITW Reagents).
Two plants (Petunia) were planted with a spacing of 20 cm. Only one of the plants is treated, either in a foliar manner or by sprinkling in different concentrations (10 L/Ha, 20 L/Ha, 50 L/Ha, 100 L/Ha, 200 L/Ha, 300 L/Ha, […], 500 L/Ha, 600 L/Ha).

[10] = tested on: Horned pansy; assay: Systemic action through contact with the underground parts (saucer, capillary uptake); conditions: potted, saucer containing 40 g pure benzyl alcohol, uptake via roots
Protocol: as §1, §7
Two potted plants (Horned pansy) were each placed in a saucer containing respectively 40 g pure benzyl alcohol or 40 g water (control). By capillary action, the liquids contained in the saucer are absorbed by the earth and come into contact with the roots.
The systemic effectiveness time, the collapsing of the plant, the colour intensity and the diameter of the plant were measured as indicated in Examples 1 and 2.

[11] = tested on: Barley seeds; assay: Pre-emergence herbicide activity: germination of seeds sown at different depths
Protocol: as §1
Pure benzyl alcohol was used (PanReac AppliChem—ITW Reagents). The application of the product is carried out with a trigger spray bottle which makes it possible to spray 1 g of product per spraying as microdroplets.
Barley seeds (50 seeds per condition) are sown in potting soil at different depths (1, 2 and 3 cm). Then, 100% benzyl alcohol is sprayed on the earth (above the seeds) at different concentrations (10, 25, 50, 100, 200, 300 L/Ha).
The state of germination is observed at 0 and 11 days. The percentage of germination is the percentage of germinated seeds evaluated after 11 days.
The percentage of seeds germinated under each of the conditions is determined and if it is below 70%, pre-emergence use is not recommended.

## OCc1ccccc1 [benzyl alcohol]
[1]
  Percentage of germination at 11 days: 0%
[2]; 30 L/ha active material, 1 day after treatment
  Visual rating of the symptoms (0 = similar to control, 100 = dead plant): 3
[2]; 30 L/ha active material, 3 days after treatment
  Visual rating of the symptoms (0 = similar to control, 100 = dead plant): 21
[2]; 30 L/ha active material, 7 days after treatment
  Visual rating of the symptoms (0 = similar to control, 100 = dead plant): 81
[2]; 40 L/ha active material, 1 day after treatment
  Visual rating of the symptoms (0 = similar to control, 100 = dead plant): 59
[2]; 40 L/ha active material, 3 days after treatment
  Visual rating of the symptoms (0 = similar to control, 100 = dead plant): 82
[2]; 40 L/ha active material, 7 days after treatment
  Visual rating of the symptoms (0 = similar to control, 100 = dead plant): 93
[2]; 60 L/ha active material, 1 day after treatment
  Visual rating of the symptoms (0 = similar to control, 100 = dead plant): 63
[2]; 60 L/ha active material, 3 days after treatment
  Visual rating of the symptoms (0 = similar to control, 100 = dead plant): 92
[2]; 60 L/ha active material, 7 days after treatment
  Visual rating of the symptoms (0 = similar to control, 100 = dead plant): 100
[3]
  Collapsing: time to pass from a score of 5 to a score of 1: 144 h
  Colour intensity: time to pass from a score of 5 to a score of 1: 96 h
[4]
  Percentage of germination at 11 days: 0%
[5]
  Percentage of germination at 11 days: 0%
[6]
  Percentage of germination at 11 days: 0%
[7]
  Percentage of germination at 11 days: 0%
[8]
  Percentage of germination at 11 days: 0%
[9]; foliar, 50 L/Ha
  Inter-row use possible (untreated plant at 20 cm does not collapse): no
[9]; foliar, 100 L/Ha
  Inter-row use possible (untreated plant at 20 cm does not collapse): no
[9]; foliar, 200 L/Ha
  Inter-row use possible (untreated plant at 20 cm does not collapse): no
[9]; foliar, less than 50 L/Ha
  Inter-row use possible (untreated plant at 20 cm does not collapse): no
[9]; sprinkling, 50 L/Ha
  Inter-row use possible (untreated plant at 20 cm does not collapse): yes
[9]; sprinkling, 100 L/Ha
  Inter-row use possible (untreated plant at 20 cm does not collapse): yes
[9]; sprinkling, 200 L/Ha
  Inter-row use possible (untreated plant at 20 cm does not collapse): no
[9]; sprinkling, less than 50 L/Ha
  Inter-row use possible (untreated plant at 20 cm does not collapse): yes
[10]
  Collapsing: time to pass from a score of 5 to a score of 1: 72 h
  Colour intensity: time to pass from a score of 5 to a score of 1: 48 h
  Diameter of the plant: time to pass from a score of 5 to a score of 1: 96 h
  Systemic effectiveness time: the whole plant is affected: 48 h
[11]; seeding depth 1 cm, 50 L/Ha benzyl alcohol sprayed on the earth
  Pre-emergence use prescribed (germination of sown seeds at 11 days not below 70%): yes (pre-emergence use is prescribed)
[11]; seeding depth 1 cm, 100 L/Ha benzyl alcohol sprayed on the earth
  Pre-emergence use prescribed (germination of sown seeds at 11 days not below 70%): no (pre-emergence use is not recommended)
[11]; seeding depth 1 cm, less than 50 L/Ha benzyl alcohol sprayed on the earth
  Pre-emergence use prescribed (germination of sown seeds at 11 days not below 70%): yes (pre-emergence use is prescribed)
[11]; seeding depth 2 cm, 50 L/Ha benzyl alcohol sprayed on the earth
  Pre-emergence use prescribed (germination of sown seeds at 11 days not below 70%): yes (pre-emergence use is prescribed)
[11]; seeding depth 2 cm, 100 L/Ha benzyl alcohol sprayed on the earth
  Pre-emergence use prescribed (germination of sown seeds at 11 days not below 70%): yes (pre-emergence use is prescribed)
[11]; seeding depth 2 cm, less than 50 L/Ha benzyl alcohol sprayed on the earth
  Pre-emergence use prescribed (germination of sown seeds at 11 days not below 70%): yes (pre-emergence use is prescribed)
[11]; seeding depth 3 cm, 50 L/Ha benzyl alcohol sprayed on the earth
  Pre-emergence use prescribed (germination of sown seeds at 11 days not below 70%): yes (pre-emergence use is prescribed)
[11]; seeding depth 3 cm, 100 L/Ha benzyl alcohol sprayed on the earth
  Pre-emergence use prescribed (germination of sown seeds at 11 days not below 70%): yes (pre-emergence use is prescribed)
[11]; seeding depth 3 cm, less than 50 L/Ha benzyl alcohol sprayed on the earth
  Pre-emergence use prescribed (germination of sown seeds at 11 days not below 70%): yes (pre-emergence use is prescribed)
